Data taken from patent US20080009418A1, “Selective Inhibitors” (Alchemia LTD., priority 2004, published 2008).

What was measured:
Human δ-opioid (DOP) = target: T1, Human δ-opioid (DOP) (Homo sapiens, UniProt P41143); test: Radioligand binding, human δ-opioid (DOP) membranes, FlashPlate, [3H]-Bremazocine; conditions: compound at 10 μM
T1 construct: purchased Perkin Elmer Biosignal
How it was run: (§1)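 Cloned human receptor membranes were coated onto FlashPlate wells and incubated with radioligand and compound (added from a 0.5 mM DMSO daughter plate) for 1 hour at room temperature in the dark. Scintillation counting gave percent inhibition, with DMSO defining total and reference ligand defining non-specific binding.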

Human κ-Opioid (KOP) = target: T2, Human κ-Opioid (KOP) (Homo sapiens, UniProt P41145); test: Radioligand binding, human κ-opioid (KOP) membranes, filtration, [3H]-Diprenorphine; conditions: compound at 10 μM
T2 construct: purchased Perkin Elmer Biosignal
T2 sequence (P41145 whole entry): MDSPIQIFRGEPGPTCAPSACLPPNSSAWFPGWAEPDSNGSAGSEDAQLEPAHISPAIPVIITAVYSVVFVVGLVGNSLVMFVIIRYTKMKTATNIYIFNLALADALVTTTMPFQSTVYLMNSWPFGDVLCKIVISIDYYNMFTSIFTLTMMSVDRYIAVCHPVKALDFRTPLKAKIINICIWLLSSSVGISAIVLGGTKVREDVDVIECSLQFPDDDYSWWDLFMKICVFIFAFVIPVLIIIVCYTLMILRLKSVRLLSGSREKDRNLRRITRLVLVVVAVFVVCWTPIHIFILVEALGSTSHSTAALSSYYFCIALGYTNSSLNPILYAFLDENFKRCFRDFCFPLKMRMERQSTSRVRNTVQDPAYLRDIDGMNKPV
How it was run: (§2)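 Membranes from cloned human receptors were incubated with compound and radioligand for 1 hour at room temperature. Bound ligand was collected on 0.3% PEI-soaked filters, washed with cold 50 mM Tris-HCl pH 7.4, and counted by scintillation. Percent inhibition was computed against DMSO totals and reference-ligand nonspecific wells.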

Human Melanocortin (MC3) = target: T3, Human Melanocortin (MC3) (Homo sapiens, UniProt P41968); test: Radioligand binding, human melanocortin MC3 membranes, FlashPlate, [125I]-NDP-αMSH; conditions: compound at 10 μM
T3 construct: purchased Perkin Elmer Biosignal
T3 sequence (P41968 whole entry): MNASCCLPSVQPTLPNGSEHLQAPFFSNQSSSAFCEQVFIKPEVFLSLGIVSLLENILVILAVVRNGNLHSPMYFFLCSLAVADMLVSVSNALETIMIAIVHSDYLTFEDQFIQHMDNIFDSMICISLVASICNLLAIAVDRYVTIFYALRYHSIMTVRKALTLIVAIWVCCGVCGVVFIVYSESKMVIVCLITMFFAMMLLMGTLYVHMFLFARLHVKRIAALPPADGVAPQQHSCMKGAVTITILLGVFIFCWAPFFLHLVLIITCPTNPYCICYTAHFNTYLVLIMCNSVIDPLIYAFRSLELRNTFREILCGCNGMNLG
How it was run: as §1

Human Melanocortin (MC4) = target: T4, Human Melanocortin (MC4) (Homo sapiens, UniProt P32245); test: Radioligand binding, human melanocortin MC4 membranes, FlashPlate, [125I]-NDP-αMSH; conditions: compound at 10 μM
T4 construct: purchased Perkin Elmer Biosignal
T4 sequence (P32245 whole entry): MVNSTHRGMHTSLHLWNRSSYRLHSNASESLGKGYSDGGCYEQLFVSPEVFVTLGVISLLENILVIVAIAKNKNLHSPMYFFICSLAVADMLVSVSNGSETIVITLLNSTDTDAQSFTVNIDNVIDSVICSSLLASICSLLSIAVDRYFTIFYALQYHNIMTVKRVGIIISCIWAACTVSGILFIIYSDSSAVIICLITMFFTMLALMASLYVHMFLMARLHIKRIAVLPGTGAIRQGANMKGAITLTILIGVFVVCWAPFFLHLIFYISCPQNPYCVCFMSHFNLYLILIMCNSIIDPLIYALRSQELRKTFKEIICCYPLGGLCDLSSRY
How it was run: as §1

Human melanocortin (MC5) = target: T5, Human melanocortin (MC5) (Homo sapiens, UniProt P33032); test: Radioligand binding, human melanocortin MC5 membranes, FlashPlate, [125I]-NDP-αMSH; conditions: compound at 10 μM
T5 construct: purchased Perkin Elmer Biosignal
T5 sequence (P33032 whole entry): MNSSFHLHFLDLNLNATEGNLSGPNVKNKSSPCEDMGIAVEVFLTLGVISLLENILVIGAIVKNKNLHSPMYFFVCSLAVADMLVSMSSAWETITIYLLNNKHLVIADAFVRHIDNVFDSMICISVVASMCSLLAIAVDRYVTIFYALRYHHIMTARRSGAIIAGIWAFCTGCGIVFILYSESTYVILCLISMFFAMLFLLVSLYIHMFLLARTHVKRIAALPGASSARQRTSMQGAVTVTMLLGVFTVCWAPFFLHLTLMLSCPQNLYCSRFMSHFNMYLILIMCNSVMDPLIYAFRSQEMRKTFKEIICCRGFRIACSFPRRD
How it was run: as §1

[1] = target: T6, Human melanin-concentrating hormone (MCH1) (Homo sapiens, UniProt Q99705); test: Radioligand binding, human melanin-concentrating hormone MCH1 membranes, FlashPlate, [125I]-S36057; conditions: compound at 10 μM; for A6: inhibition of radioligand binding, human melanin-concentrating hormone (MCH1): [125I]-S36057
T6 construct: purchased Perkin Elmer Biosignal
T6 sequence (Q99705 whole entry): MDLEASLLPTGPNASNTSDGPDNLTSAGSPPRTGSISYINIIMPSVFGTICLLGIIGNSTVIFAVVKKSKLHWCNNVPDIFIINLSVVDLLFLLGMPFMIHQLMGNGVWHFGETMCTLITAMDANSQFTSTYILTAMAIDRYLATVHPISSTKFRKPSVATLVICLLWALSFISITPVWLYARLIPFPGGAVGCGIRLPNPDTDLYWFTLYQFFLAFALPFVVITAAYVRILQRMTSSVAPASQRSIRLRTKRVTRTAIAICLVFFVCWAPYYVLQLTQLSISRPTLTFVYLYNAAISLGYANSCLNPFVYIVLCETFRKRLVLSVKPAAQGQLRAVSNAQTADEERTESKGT
How it was run: as §1

Human μ-opioid (MOP) = target: T7, Human μ-opioid (MOP) (Homo sapiens, UniProt P35372); test: Radioligand binding, human μ-opioid (MOP) membranes, FlashPlate, [3H]-Naloxone; conditions: compound at 10 μM
T7 construct: purchased Perkin Elmer Biosignal
T7 sequence (P35372 whole entry): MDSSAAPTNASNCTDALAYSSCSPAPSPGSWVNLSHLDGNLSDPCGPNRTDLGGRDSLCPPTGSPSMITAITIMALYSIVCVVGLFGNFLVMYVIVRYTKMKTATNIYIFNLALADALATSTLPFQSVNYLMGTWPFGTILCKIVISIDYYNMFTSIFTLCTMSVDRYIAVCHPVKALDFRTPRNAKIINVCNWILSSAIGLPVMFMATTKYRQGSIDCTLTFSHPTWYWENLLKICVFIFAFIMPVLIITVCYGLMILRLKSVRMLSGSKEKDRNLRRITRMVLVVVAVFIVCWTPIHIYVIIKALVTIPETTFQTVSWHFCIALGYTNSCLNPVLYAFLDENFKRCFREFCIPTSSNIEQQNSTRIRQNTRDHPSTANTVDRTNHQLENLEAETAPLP
How it was run: as §1

Human neurokinin (NK1) = target: T8, Human neurokinin (NK1) (Homo sapiens, UniProt P25103); test: Radioligand binding, human neurokinin NK1 membranes, filtration, [125I]-Substance P; conditions: compound at 10 μM
T8 construct: purchased Perkin Elmer Biosignal
T8 sequence (P25103 whole entry): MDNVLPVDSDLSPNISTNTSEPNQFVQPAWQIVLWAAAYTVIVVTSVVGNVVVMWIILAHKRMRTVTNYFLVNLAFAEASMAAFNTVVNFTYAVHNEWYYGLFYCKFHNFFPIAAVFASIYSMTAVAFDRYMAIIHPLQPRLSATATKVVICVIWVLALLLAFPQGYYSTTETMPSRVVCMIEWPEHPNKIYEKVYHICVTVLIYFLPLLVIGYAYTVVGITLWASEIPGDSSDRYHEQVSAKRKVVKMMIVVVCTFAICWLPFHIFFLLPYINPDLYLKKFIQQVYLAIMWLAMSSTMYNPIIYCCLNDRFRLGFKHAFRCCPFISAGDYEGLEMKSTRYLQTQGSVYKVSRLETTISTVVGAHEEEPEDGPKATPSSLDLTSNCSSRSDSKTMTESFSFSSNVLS
How it was run: as §2

[2] = target: T9, Human neuropeptide Y (NPY-Y1) (Homo sapiens, UniProt P25929); test: Radioligand binding, human neuropeptide Y NPY-Y1 membranes, FlashPlate, [125I]-PYY; conditions: compound at 10 μM
T9 construct: purchased Perkin Elmer Biosignal
T9 sequence (P25929 1-384): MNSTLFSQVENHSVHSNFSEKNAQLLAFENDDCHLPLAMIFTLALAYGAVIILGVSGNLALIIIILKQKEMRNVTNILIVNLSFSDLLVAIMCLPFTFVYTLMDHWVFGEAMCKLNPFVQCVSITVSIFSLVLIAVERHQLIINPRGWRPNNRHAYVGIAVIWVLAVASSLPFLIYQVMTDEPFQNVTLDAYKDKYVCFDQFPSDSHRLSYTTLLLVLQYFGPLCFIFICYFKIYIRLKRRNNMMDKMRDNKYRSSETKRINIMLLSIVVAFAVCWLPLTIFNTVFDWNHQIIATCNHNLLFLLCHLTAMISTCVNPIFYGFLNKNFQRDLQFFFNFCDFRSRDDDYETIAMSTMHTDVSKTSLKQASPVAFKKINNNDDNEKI
How it was run: as §1

Human opioid (ORL1) = target: T10, Human opioid (ORL1) (Homo sapiens, UniProt P41146); test: Radioligand binding, human opioid ORL1 membranes, FlashPlate, [125I]-Nociceptin; conditions: compound at 10 μM
T10 construct: purchased Perkin Elmer Biosignal
T10 sequence (P41146 whole entry): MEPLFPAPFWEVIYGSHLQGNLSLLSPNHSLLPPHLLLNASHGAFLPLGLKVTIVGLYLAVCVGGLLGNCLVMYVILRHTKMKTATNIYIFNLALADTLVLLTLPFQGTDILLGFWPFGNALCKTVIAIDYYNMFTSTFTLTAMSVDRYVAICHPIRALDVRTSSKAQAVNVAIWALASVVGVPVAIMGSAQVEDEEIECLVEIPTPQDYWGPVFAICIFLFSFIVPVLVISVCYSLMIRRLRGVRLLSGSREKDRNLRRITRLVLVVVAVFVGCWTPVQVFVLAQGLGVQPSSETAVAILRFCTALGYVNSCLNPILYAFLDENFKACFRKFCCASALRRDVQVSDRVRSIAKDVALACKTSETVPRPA
How it was run: as §1

Mouse urotensin (mUR2) = target: T11, Mouse urotensin (mUR2) (Mus musculus, UniProt Q8VIH9); test: Radioligand binding, mouse urotensin mUR2 membranes, FlashPlate, [125I]-Urotensin II; conditions: compound at 10 μM
T11 construct: purchased Perkin Elmer Biosignal
T11 sequence (Q8VIH9 1-385): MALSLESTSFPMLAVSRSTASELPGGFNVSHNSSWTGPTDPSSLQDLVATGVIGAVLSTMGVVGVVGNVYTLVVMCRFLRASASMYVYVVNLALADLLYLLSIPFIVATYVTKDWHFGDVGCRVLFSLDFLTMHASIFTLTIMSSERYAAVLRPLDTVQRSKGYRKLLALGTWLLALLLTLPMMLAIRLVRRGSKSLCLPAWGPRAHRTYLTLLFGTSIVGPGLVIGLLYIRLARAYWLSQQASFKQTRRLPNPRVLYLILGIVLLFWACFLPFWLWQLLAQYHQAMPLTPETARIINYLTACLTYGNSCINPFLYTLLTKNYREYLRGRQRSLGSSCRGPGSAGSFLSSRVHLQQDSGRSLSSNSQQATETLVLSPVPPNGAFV
How it was run: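 Cloned mouse urotensin (mUR2) receptor membranes from Perkin Elmer Biosignal were immobilized in FlashPlate microplates using a proprietary coating. Each well got 19.5 μl buffer, then 0.5 μl of DMSO, reference ligand, or compound. Adding 5 μl of [125I]-Urotensin II, diluted to 5× final concentration in binding buffer, started binding. Plates were sealed with TopSeal-A and incubated 1 hour at room temperature in the dark. Wells were counted for 30 seconds each on a TopCount after a 60-second delay, and percentage inhibition was calculated.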

T1 sequence (P41143 whole entry): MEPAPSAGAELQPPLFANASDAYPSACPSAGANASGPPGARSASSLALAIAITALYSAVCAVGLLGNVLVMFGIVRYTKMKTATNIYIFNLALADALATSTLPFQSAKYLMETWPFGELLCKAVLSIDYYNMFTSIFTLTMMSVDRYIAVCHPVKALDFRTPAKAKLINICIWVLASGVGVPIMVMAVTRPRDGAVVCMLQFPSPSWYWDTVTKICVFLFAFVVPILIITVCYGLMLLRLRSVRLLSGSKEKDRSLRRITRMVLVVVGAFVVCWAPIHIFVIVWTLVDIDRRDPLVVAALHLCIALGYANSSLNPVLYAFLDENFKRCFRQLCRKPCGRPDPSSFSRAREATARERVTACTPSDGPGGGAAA

Structure (SMILES) | A1: inhibition of radioligand binding, human δ-opioid (DOP) (Human δ-opioid (DOP); [3H]-Bremazocine) | A2: inhibition of radioligand binding, human κ-opioid (KOP) (Human κ-Opioid (KOP); [3H]-Diprenorphine) | A3: inhibition of radioligand binding, human melanocortin (MC3) (Human Melanocortin (MC3); [125I]-NDP-αMSH) | A4: inhibition of radioligand binding, human melanocortin (MC4) (Human Melanocortin (MC4); [125I]-NDP-αMSH) | A5: inhibition of radioligand binding, human melanocortin (MC5) (Human melanocortin (MC5); [125I]-NDP-αMSH) | A6: inhibition of radioligand binding, human melanin-concentrating hormone (MCH1) [1] | A7: inhibition of radioligand binding, human μ-opioid (MOP) (Human μ-opioid (MOP); [3H]-Naloxone) | A8: inhibition of radioligand binding, human neurokinin (NK1) (Human neurokinin (NK1); [125I]-Substance P) | A9: inhibition of radioligand binding, human neuropeptide Y (NPY-Y1) ([2]; [125I]-PYY) | A10: inhibition of radioligand binding, human opioid (ORL1) (Human opioid (ORL1); [125I]-Nociceptin) | A11: inhibition of radioligand binding, mouse urotensin (mUR2) (Mouse urotensin (mUR2); [125I]-Urotensin II) | further results
COC1C(O)C(COCc2ccc3ccccc3c2)OC(OCc2ccc(Cl)cc2)C1NC(=O)CNC(=N)N (stereo not shown) [compound 350] | − (“−” indicates less than 50% inhibition at 10 μM) | − (“−” indicates less than 50% inhibition at 10 μM) | − (“−” indicates less than 50% inhibition at 10 μM) | − (“−” indicates less than 50% inhibition at 10 μM) | + (“+” indicates greater than 50% inhibition at 10 μM) | − (“−” indicates less than 50% inhibition at 10 μM) | − (“−” indicates less than 50% inhibition at 10 μM) | + (“+” indicates greater than 50% inhibition at 10 μM) | − (“−” indicates less than 50% inhibition at 10 μM) | − (“−” indicates less than 50% inhibition at 10 μM) | − (“−” indicates less than 50% inhibition at 10 μM) | 
CSC1O[C@H](COCc2ccc3ccccc3c2)[C@@H](O)[C@@H](OCc2ccc(-c3ccccc3)cc2)[C@H]1NC(=O)CCNC(=N)N (stereo partly shown) [compound 298] | − (“−” indicates less than 50% inhibition at 10 μM) | − (“−” indicates less than 50% inhibition at 10 μM) | − (“−” indicates less than 50% inhibition at 10 μM) | − (“−” indicates less than 50% inhibition at 10 μM) | + (“+” indicates greater than 50% inhibition at 10 μM) | − (“−” indicates less than 50% inhibition at 10 μM) | − (“−” indicates less than 50% inhibition at 10 μM) | + (“+” indicates greater than 50% inhibition at 10 μM) | − (“−” indicates less than 50% inhibition at 10 μM) | − (“−” indicates less than 50% inhibition at 10 μM) | − (“−” indicates less than 50% inhibition at 10 μM) | 
NCCCC(=O)NC1C(OCc2ccc3ccccc3c2)OC(COCc2ccccc2)C(O)C1OCc1ccc(Cl)cc1 (single isomer, unassigned) [compound 456] |  |  |  |  |  |  |  |  |  |  |  | A1: inhibition of radioligand binding (Human δ-opioid (DOP); [3H]-Bremazocine, human DOP membranes): − (“−” indicates less than 50% inhibition at 10 μM); A2: inhibition of radioligand binding (Human κ-Opioid (KOP); [3H]-Diprenorphine, human KOP membranes): − (“−” indicates less than 50% inhibition at 10 μM); A3: inhibition of radioligand binding (Human Melanocortin (MC3); [125I]-NDP-αMSH, human MC3 membranes): − (“−” indicates less than 50% inhibition at 10 μM); A4: inhibition of radioligand binding (Human Melanocortin (MC4); [125I]-NDP-αMSH, human MC4 membranes, 10 µM): − (“−” indicates less than 50% inhibition at 10 μM); A5: inhibition of radioligand binding (Human melanocortin (MC5); [125I]-NDP-αMSH, human MC5 membranes, 10 µM): + (“+” indicates greater than 50% inhibition at 10 μM); A6: inhibition of radioligand binding ([1]; [125I]-S36057, human MCH1 membranes, 10 µM): + (“+” indicates greater than 50% inhibition at 10 μM); A7: inhibition of radioligand binding (Human μ-opioid (MOP); [3H]-Naloxone, human MOP membranes, 10 µM): − (“−” indicates less than 50% inhibition at 10 μM); A8: inhibition of radioligand binding (Human neurokinin (NK1); [125I]-Substance P, human NK1 membranes): + (“+” indicates greater than 50% inhibition at 10 μM); A9: inhibition of radioligand binding ([2]; [125I]-PYY, human NPY-Y1 membranes): − (“−” indicates less than 50% inhibition at 10 μM); A10: inhibition of radioligand binding (Human opioid (ORL1); [125I]-Nociceptin, human ORL1 membranes, 10 µM): − (“−” indicates less than 50% inhibition at 10 μM); A11: inhibition of radioligand binding (Mouse urotensin (mUR2); [125I]-Urotensin II, mouse mUR2 membranes): − (“−” indicates less than 50% inhibition at 10 μM)
CO[C@H]1[C@H](O)[C@@H](COCc2ccccc2)OC(OCc2ccc3ccccc3c2)[C@@H]1NC(=O)CNC(=N)N (stereo partly shown) [compound 74] |  |  |  |  |  |  |  |  |  |  |  | A1 radioligand binding inhibition (Human δ-opioid (DOP); human δ-opioid (DOP) membranes): − (“−” indicates less than 50% inhibition at 10 μM); A2 radioligand binding inhibition (Human κ-Opioid (KOP); human κ-opioid (KOP) membranes): − (“−” indicates less than 50% inhibition at 10 μM); A3 radioligand binding inhibition (Human Melanocortin (MC3); human melanocortin MC3 membranes): − (“−” indicates less than 50% inhibition at 10 μM); A4 radioligand binding inhibition (Human Melanocortin (MC4); human melanocortin MC4 membranes): − (“−” indicates less than 50% inhibition at 10 μM); A5 radioligand binding inhibition (Human melanocortin (MC5); human melanocortin MC5 membranes): + (“+” indicates greater than 50% inhibition at 10 μM); A6 radioligand binding inhibition ([1]; human MCH1 membranes): − (“−” indicates less than 50% inhibition at 10 μM); A7 radioligand binding inhibition (Human μ-opioid (MOP); human μ-opioid (MOP) membranes): + (“+” indicates greater than 50% inhibition at 10 μM); A8 radioligand binding inhibition (Human neurokinin (NK1); human neurokinin NK1 membranes): + (“+” indicates greater than 50% inhibition at 10 μM); A9 radioligand binding inhibition ([2]; human NPY-Y1 membranes): − (“−” indicates less than 50% inhibition at 10 μM); A10 radioligand binding inhibition (Human opioid (ORL1); human ORL1 membranes): − (“−” indicates less than 50% inhibition at 10 μM); A11 radioligand binding inhibition (Mouse urotensin (mUR2); mouse urotensin mUR2 membranes): − (“−” indicates less than 50% inhibition at 10 μM)
NCCCC(=O)NC1C(OCc2ccc(Cl)cc2)OC(COCc2ccc(Cl)cc2)C(O)C1OCc1ccc(Cl)cc1 (single isomer, unassigned) [compound 493] | − (“−” indicates less than 50% inhibition at 10 μM) | − (“−” indicates less than 50% inhibition at 10 μM) |  | + (“+” indicates greater than 50% inhibition at 10 μM) | + (“+” indicates greater than 50% inhibition at 10 μM) | + (“+” indicates greater than 50% inhibition at 10 μM) | − (“−” indicates less than 50% inhibition at 10 μM) | + (“+” indicates greater than 50% inhibition at 10 μM) | − (“−” indicates less than 50% inhibition at 10 μM) | + (“+” indicates greater than 50% inhibition at 10 μM) | − (“−” indicates less than 50% inhibition at 10 μM) | A3: inhibition of radioligand binding, human melanocortin (MC3) (Human Melanocortin (MC3); [125I]-NDP-αMSH, 10 µM): − (“−” indicates less than 50% inhibition at 10 μM)
